{
  "source": "patent US20030215788A1",
  "about": "“Cysteine thiol-protected peptides for use in immunoassays” (priority 1989, published 2003)",
  "key": {"[1]": {"system": "Antibodies to HIV-1", "assay_type": "binding, human", "experimental": "The subject peptide compositions were immobilized onto latex beads and entrapped on a microporous membrane atop an absorbent material for the determination and/or quantitation of antibodies to HIV. Examples of such immunoassay apparatus and methods are the subject of U.S. Pat. Nos. 4,633,901 and 4,727,019, both incorporated herein by reference. The membrane concentration immunoassay involves three incubations comprising a total assay time of 10 minutes. Peptides tested were adsorbed to latex beads by the methods described above.\nEach sample was tested on a filtration unit comprising three spots on a 1.2 μm pore size nylon membrane. One spot comprising the test peptide/latex bead preparation, one spot comprising a positive procedural control and the other comprising a negative procedural control.\nThe peptide/latex bead preparation was suspended in 0.1M Tris buffer, pH 7.2, 0.15M NaCl, 0.01M MgCl2, 10% sucrose, 2% fetal calf serum. Membranes were spotted with a 0.1-0.2% suspension of peptide/bead preparation. Negative procedural control spots were comprised of latex beads coated by adsorption with BSA. While positive procedural control spots were comprised of latex beads coated by adsorption with goat antihuman immunoglobulins.\nSerum or plasma samples (40 μl) were diluted 1:10 in dilution buffer (10% heat inactivated normal goat serum, 1% dextran sulfate, 0.2% Tween 20, 2.5% nonfat dry milk, 15 ppm Kathon CG, 0.005% antifoam A, in 20 mM sodium citrate buffer, pH 7.4). Diluted specimen was added to the surface of the membrane and allowed to absorb completely. After waiting 2 min. from the time of specimen addition, 1 ml of wash buffer (0.01M Tris-buffered saline, pH 6.0, 0.05M NaCl, 0.005M MgCl2, 0.1% sodium azide, 10 μg/ml nitro blue tetrazolium, 0.5M potassium thiocyanate) was added and allowed to completely absorb through the membrane. About 0.150 ml (3 drops) of goat anti-human Ig-alkaline phosphatase conjugate diluted in 10 mM phosphate buffered saline, pH 7.4, 0.2% goat gamma globulin, 1% bovine serum albumin, 1 mM MgCl2, 0.1 mM ZnCl2 was added to the membrane and allowed to absorb completely. The membrane was washed twice as above (2 ml) and about 0.150 ml (3 drops) of substrate (1M 2-amino-2-methyl-1-propanol, pH 10.3, 5 mg/ml 3-indoxyl phosphate) was added and allowed to absorb completely. After about 5 min. about 1 ml of 0.5M EDTA, pH 7.4, was passed through the membrane to stop the reaction. After the stop solution was completely absorbed the units were read visually or semi-quantitatively by reflectance."}, "[2]": {"system": "Antibodies to HIV-1", "assay_type": "binding, human", "experimental": "Alternative methods of testing immunologic cross-reactivity were also used. In one such method L5 Peptides 39 and 39GC were tested by ELISA as previously described in U.S. Pat. No. 4,629,783. Briefly, stock solutions of peptides 39 and 39-GC were prepared in 6M Gu-HCl. Working dilutions of 20 µg/ml and 6 μg/ml respectively were prepared by dilution of stock solution 0 with 0.05M carbonate/bicarbonate buffer, pH 9.5. Wells of microtiter plates were filled with 100 μl of the working dilution of the peptides and allowed to stand overnight at room temperature. Coating solution was removed and 300 μl of blocking solution supra containing 0.5M ethanolamine was added for 1 hr. at room temperature. Blocking solution was removed and the plates were used immediately or allowed to dry and stored for later use.\nPlasma samples were diluted (See Table 1) in sample dilution buffer (above) and 100 μl was added to individual wells. Samples were incubated for 30 min. at 37° C., then removed and the wells were washed six times with 0.15M NaCl, 0.05% Tween 20. One hundred microliters of goat antihuman Ig-horseradish peroxidase conjugate diluted in citrate buffer, pH 7.0, 1% normal goat serum was added to each well for 30 min at 37° C. prior to washing six times as above. The ELISA assay was developed by adding 100 μl/well of substrate solution (80 μg/ml tetramethyl benzidine, 0.0015% hydrogen peroxide in citrate/phosphate buffer, pH 6.0) for 30 min. at room temperature. Reactions were stopped with the addition of 100 μl of H2SO4 per well, and the ratio of the optical density at 450 nm to 630 nm was determined by an automated ELISA reader. The cutoff value for a positive result was set at 0.225 Absorbance Units above the average absorbance obtained for three known negative samples.", "remark": "listed apart in the source"}},
  "note": "“Also recorded” adds a separate entry of the source. Like-named read-outs stand apart in the source and are kept apart here.",
  "data": [
    {"substance": "Cys-Gly-Gly-Arg-Ile-Leu-Ala-Val-Glu-Arg-Tyr-Leu-Lys-Asp-Gln-Gln-Leu-Leu-Gly-Ile-Trp-Gly-Cys*-Ser-Gly-Lys-Leu-Ile-Cys*-NH2 [Peptide 39GC]", "values": [
      {"measurement": "No. Positive/Total No.", "setting": "[1]; Autoimmune Samples", "result": "0/51"},
      {"measurement": "No. Positive/Total No.", "setting": "[1]; Normal Blood Bank Donors", "result": "0/1187"},
      {"measurement": "No. Positive/Total No.", "setting": "[1]; Problematic HIV-I Seronegative Samples", "result": "0/72"},
      {"measurement": "No. Positive/Total No.", "setting": "[1]; Secondary, Atypical Syphillis Sera/HIV Neg.", "result": "0/26"},
      {"measurement": "No. Positive/Total No.", "setting": "[1]; Secondary, Atypical Syphillis Sera/HIV Pos.", "result": "4/4"},
      {"measurement": "No. Positive/Total No.", "setting": "[1]; Western Blot Neg./LAV-EIA Pos.", "result": "0/79"},
      {"measurement": "No. Positive/Total No.", "setting": "[1]; Western Blot Pos./LAV-EIA Pos. (OD < 1.5)", "result": "120/120"},
      {"measurement": "No. Positive/Total No.", "setting": "[1]; Western Blot Pos./LAV-EIA Pos. (OD > 1.5)", "result": "29/29"},
      {"measurement": "No. Positive/Total No.", "setting": "[1]; Western Blot p25 Neg./LAV/EIA Pos. (Atypical 1)", "result": "0/39"},
      {"measurement": "No. Positive/Total No.", "setting": "[1]; Western Blot p25 Pos./LAV-EIA Pos. (Atypical 2)", "result": "0/170"},
      {"measurement": "Diagnosis by ELISA", "setting": "[2]; PlasmaG (1:40)", "result": "Pos/Pos"},
      {"measurement": "ELISA optical density (450 nm/630 nm)", "setting": "[2]; PlasmaG (1:40)", "result": 0.895},
      {"measurement": "Diagnosis by ELISA", "setting": "[2]; PlasmaG (1:80)", "result": "Pos"},
      {"measurement": "ELISA optical density (450 nm/630 nm)", "setting": "[2]; PlasmaG (1:80)", "result": 0.820},
      {"measurement": "Diagnosis by ELISA", "setting": "[2]; PlasmaG (1:160)", "result": "Pos"},
      {"measurement": "ELISA optical density (450 nm/630 nm)", "setting": "[2]; PlasmaG (1:160)", "result": 0.575},
      {"measurement": "Diagnosis by ELISA", "setting": "[2]; PlasmaG (1:320)", "result": "Neg/Neg"},
      {"measurement": "ELISA optical density (450 nm/630 nm)", "setting": "[2]; PlasmaG (1:320)", "result": 0.349},
      {"measurement": "Diagnosis by ELISA", "setting": "[2]; PlasmaG (1:640)", "result": "Neg/Neg"},
      {"measurement": "ELISA optical density (450 nm/630 nm)", "setting": "[2]; PlasmaG (1:640)", "result": 0.179},
      {"measurement": "Diagnosis by ELISA", "setting": "[2]; PlasmaG (1:1280)", "result": "Neg/Neg"},
      {"measurement": "ELISA optical density (450 nm/630 nm)", "setting": "[2]; PlasmaG (1:1280)", "result": 0.107},
      {"measurement": "Diagnosis by ELISA", "setting": "[2]; PlasmaO (1:40)", "result": "Pos/Pos"},
      {"measurement": "ELISA optical density (450 nm/630 nm)", "setting": "[2]; PlasmaO (1:40)", "result": 1.439},
      {"measurement": "Diagnosis by ELISA", "setting": "[2]; PlasmaO (1:80)", "result": "Pos/Pos"},
      {"measurement": "ELISA optical density (450 nm/630 nm)", "setting": "[2]; PlasmaO (1:80)", "result": 1.010},
      {"measurement": "Diagnosis by ELISA", "setting": "[2]; PlasmaO (1:160)", "result": "Pos/Pos"},
      {"measurement": "ELISA optical density (450 nm/630 nm)", "setting": "[2]; PlasmaO (1:160)", "result": 0.742},
      {"measurement": "Diagnosis by ELISA", "setting": "[2]; PlasmaO (1:320)", "result": "Pos"},
      {"measurement": "ELISA optical density (450 nm/630 nm)", "setting": "[2]; PlasmaO (1:320)", "result": 0.397},
      {"measurement": "Diagnosis by ELISA", "setting": "[2]; PlasmaO (1:640)", "result": "Neg/Neg"},
      {"measurement": "ELISA optical density (450 nm/630 nm)", "setting": "[2]; PlasmaO (1:640)", "result": 0.279},
      {"measurement": "Diagnosis by ELISA", "setting": "[2]; PlasmaO (1:1280)", "result": "Neg/Neg"},
      {"measurement": "ELISA optical density (450 nm/630 nm)", "setting": "[2]; PlasmaO (1:1280)", "result": 0.165},
      {"measurement": "dilution giving a positive result, compared with Peptide 39", "setting": "[2]; plasma dilution panel, Table 1", "result": "positive result at a higher dilution than Peptide 39"},
      {"measurement": "ELISA optical density", "setting": "[2]; seroconversion panel sample BBI-1", "result": 0.347},
      {"measurement": "ELISA optical density", "setting": "[2]; seroconversion panel sample BBI-2", "result": 0.317},
      {"measurement": "ELISA optical density", "setting": "[2]; seroconversion panel sample BBI-3", "result": 0.842},
      {"measurement": "ELISA optical density", "setting": "[2]; seroconversion panel sample BBI-4", "result": 1.105},
      {"measurement": "ELISA optical density", "setting": "[2]; seroconversion panel sample BBI-5", "result": 1.757},
      {"measurement": "ELISA optical density", "setting": "[2]; seroconversion panel sample BBI-6", "result": 2.160},
      {"measurement": "ELISA optical density", "setting": "[2]; seroconversion panel sample BBI-7", "result": 1.986},
      {"measurement": "ELISA optical density", "setting": "[2]; seroconversion panel sample BBI-8", "result": 2.317},
      {"measurement": "ELISA optical density", "setting": "[2]; seroconversion panel sample BBI-9", "result": 2.328},
      {"measurement": "ELISA optical density", "setting": "[2]; seroconversion panel sample BBI-20", "result": 0.136},
      {"measurement": "ELISA optical density", "setting": "[2]; seroconversion panel sample BBI-21", "result": 0.158},
      {"measurement": "ELISA optical density", "setting": "[2]; seroconversion panel sample BBI-22", "result": 0.450},
      {"measurement": "ELISA optical density", "setting": "[2]; seroconversion panel sample BBI-23", "result": 0.890},
      {"measurement": "ELISA optical density", "setting": "[2]; seroconversion panel sample BBI-24", "result": 1.064},
      {"measurement": "ELISA optical density", "setting": "[2]; seroconversion panel sample BBI-25", "result": 0.845},
      {"measurement": "ELISA optical density", "setting": "[2]; seroconversion panel sample BBI-26", "result": 0.852},
      {"measurement": "ELISA optical density", "setting": "[2]; seroconversion panel sample BBI-27", "result": 1.104},
      {"measurement": "ELISA optical density", "setting": "[2]; seroconversion panel sample BBI-28", "result": 1.177},
      {"measurement": "ELISA optical density", "setting": "[2]; seroconversion panel sample BBI-29", "result": 2.085},
      {"measurement": "ELISA optical density", "setting": "[2]; seroconversion panel sample BBI-30", "result": 2.214},
      {"measurement": "ELISA optical density", "setting": "[2]; seroconversion panel sample BBI-31", "result": 2.207},
      {"measurement": "ELISA optical density", "setting": "[2]; seroconversion panel sample BBI-32", "result": 2.263},
      {"measurement": "ELISA optical density", "setting": "[2]; seroconversion panel sample BBI-33", "result": 2.277},
      {"measurement": "ELISA optical density", "setting": "[2]; seroconversion panel sample BBI-34", "result": 1.622},
      {"measurement": "ELISA optical density", "setting": "[2]; seroconversion panel sample BBI-35", "result": 2.198},
      {"measurement": "ELISA optical density", "setting": "[2]; seroconversion panel sample BBI-36", "result": 2.265},
      {"measurement": "ELISA optical density", "setting": "[2]; seroconversion panel sample BBI-37", "result": 2.105},
      {"measurement": "time of first positive result on seroconversion panels", "setting": "[2]; two seroconversion panels, Table 4", "result": "positive result earlier than whole virus ELISA; also recorded: positive result earlier than peptide 39 on one of the seroconversion panels"}
    ]}
  ]
}
